Experimental data from ChEMBL document CHEMBL4364273, “Discovery of SHR1653, a Highly Potent and Selective OTR Antagonist with Improved Blood-Brain Barrier Penetration” (ACS Med Chem Lett, 2019).
≈ marks a conversion by molar mass, not a printed value.

Key:
[1] = Cmax in nude mouse at 4 mg/kg, po measured for 24 hrs by LC-MS/MS analysis; format: ADME, organism-based; design: dose 4 mg/kg, route oral; conditions: in vivo
Homo sapiens [2] = species: Homo sapiens; experiment: Selectivity ratio of IC50 for human vasopressin V1B receptor expressed in HEK293 cells to IC50 for human OTR expressed in HEK293 cells; format: cell-based
[3] = Plasma concentration in Sprague-Dawley rat by LC-MS/MS analysis; format: ADME, cell-free
[4] = AUC (0 to 24 hrs) in Sprague-Dawley rat at 2 mg/kg, po by LC-MS/MS analysis; format: ADME, organism-based; design: time < 24 hr, dose 2 mg/kg, route oral; conditions: in vivo
[5] = Half-life in Beagle dog at 20 mg/kg, po measured for 24 hrs by LC-MS/MS analysis; format: ADME, organism-based, Canis lupus familiaris; conditions: in vivo
[6] = Tmax in nude mouse at 4 mg/kg, po measured for 24 hrs by LC-MS/MS analysis; format: ADME, organism-based; conditions: in vivo
[7] = Safety index, ratio of NOAEL in rat to EC50 for inhibition of oxytocin-induced contractile response in po dosed Sprague-Dawley rat; format: toxicity, organism-based; conditions: in vivo
[8] = Cmax in Beagle dog at 20 mg/kg, po measured for 24 hrs by LC-MS/MS analysis; format: ADME, organism-based, Canis lupus familiaris; design: dose 20 mg/kg, route oral; conditions: in vivo
Oxytocin receptor = target: T1, Oxytocin receptor (Homo sapiens, UniProt P30559); experiment: Antagonist activity at human OTR expressed in HEK293 cells assessed as decrease in calcium flux measured after 10 mins in […] by Fluo-4 dye based microplate reader based assay; format: functional, cell-based
T1 sequence (P30559 whole entry): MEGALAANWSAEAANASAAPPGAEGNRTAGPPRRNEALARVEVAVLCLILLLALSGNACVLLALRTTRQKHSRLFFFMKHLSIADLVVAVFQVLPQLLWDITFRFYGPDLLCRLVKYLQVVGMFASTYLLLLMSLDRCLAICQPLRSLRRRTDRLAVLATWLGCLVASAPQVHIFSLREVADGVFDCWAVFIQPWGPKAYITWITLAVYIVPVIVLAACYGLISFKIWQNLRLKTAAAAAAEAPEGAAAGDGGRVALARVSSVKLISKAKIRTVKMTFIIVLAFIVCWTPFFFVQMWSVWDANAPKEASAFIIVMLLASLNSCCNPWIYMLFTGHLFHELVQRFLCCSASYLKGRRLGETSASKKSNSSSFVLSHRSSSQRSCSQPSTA

[9] = Clearance in Sprague-Dawley rat at 1 mg/kg, iv measured for 24 hrs by LC-MS/MS analysis; format: ADME, organism-based; conditions: in vivo
[10] = Cmax in Sprague-Dawley rat at 150 mg/kg, po measured for 24 hrs by LC-MS/MS analysis; format: ADME, organism-based; design: dose 150 mg/kg, route oral; conditions: in vivo
[11] = Half-life in Beagle dog at 2 mg/kg, po measured for 24 hrs by LC-MS/MS analysis; format: ADME, organism-based, Canis lupus familiaris; conditions: in vivo
[12] = Unbound fraction in Sprague-Dawley rat plasma by LC-MS/MS analysis; format: ADME, cell-free
[13] = Acute toxicity in rat; conditions: in vivo
[14] = Tmax in Beagle dog at 20 mg/kg, po measured for 24 hrs by LC-MS/MS analysis; format: ADME, organism-based, Canis lupus familiaris; conditions: in vivo
[15] = Clearance in nude mouse at 1 mg/kg, iv measured for 24 hrs by LC-MS/MS analysis; format: ADME, organism-based; conditions: in vivo
Cytochrome P450 2D6 = Cytochrome P450 2D6 (Homo sapiens, UniProt P10635); experiment: Inhibition of human recombinant CYP2D6; format: ADME
Cytochrome P450 2D6, sequence (P10635 whole entry): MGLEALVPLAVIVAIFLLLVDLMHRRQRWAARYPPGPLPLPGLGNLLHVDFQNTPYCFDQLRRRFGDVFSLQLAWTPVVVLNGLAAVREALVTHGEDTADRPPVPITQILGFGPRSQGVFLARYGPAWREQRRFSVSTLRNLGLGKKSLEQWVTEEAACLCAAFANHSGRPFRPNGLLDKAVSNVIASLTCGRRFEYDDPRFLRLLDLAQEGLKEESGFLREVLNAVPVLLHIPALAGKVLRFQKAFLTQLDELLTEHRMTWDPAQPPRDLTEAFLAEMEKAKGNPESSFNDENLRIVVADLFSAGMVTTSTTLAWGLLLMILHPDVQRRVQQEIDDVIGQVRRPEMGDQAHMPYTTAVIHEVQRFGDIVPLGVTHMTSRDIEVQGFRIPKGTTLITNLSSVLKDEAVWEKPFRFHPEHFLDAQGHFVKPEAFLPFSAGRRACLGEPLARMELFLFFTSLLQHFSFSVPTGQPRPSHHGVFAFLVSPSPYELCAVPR

[16] = Protein binding in human plasma; format: ADME, cell-free; conditions: read-out: PPB (converted)
[17] = Acute toxicity in rat assessed as effect on hematological parameters up to 300 mg/kg measured for 7 days; format: organism-based; conditions: in vivo, 168 h
[18] = Hepatic clearance in dog liver microsomes by LC-MS/MS analysis; format: ADME, Canis lupus familiaris, Microsome
Rattus norvegicus [19] = experiment: Anti-premature ejaculation activity in anesthetized oxytocin-induced uterine contraction Sprague-Dawley rat model assessed as decrease in intraluminal uterine pressure administered orally for 20 mins and 1 hr later treated with oxytocin and measured for 15 to 30 mins relative to control; format: functional
[20] = Acute toxicity in rat assessed as effect on body weight at up to 300 mg/kg measured for 7 days; format: organism-based; conditions: in vivo, 168 h
[21] = Clearance in Beagle dog at 1 mg/kg, iv measured for 24 hrs by LC-MS/MS analysis; format: ADME, organism-based, Canis lupus familiaris; conditions: in vivo
[22] = Cmax in Sprague-Dawley rat at 2 mg/kg, po measured for 24 hrs by LC-MS/MS analysis; format: ADME, organism-based; design: dose 2 mg/kg, route oral; conditions: in vivo
Cytochrome P450 3A4 [23] = target: T2, Cytochrome P450 3A4 (Homo sapiens, UniProt P08684); experiment: Inhibition of human recombinant CYP3A4 using testosterone as substrate; format: ADME
T2 sequence (P08684 whole entry): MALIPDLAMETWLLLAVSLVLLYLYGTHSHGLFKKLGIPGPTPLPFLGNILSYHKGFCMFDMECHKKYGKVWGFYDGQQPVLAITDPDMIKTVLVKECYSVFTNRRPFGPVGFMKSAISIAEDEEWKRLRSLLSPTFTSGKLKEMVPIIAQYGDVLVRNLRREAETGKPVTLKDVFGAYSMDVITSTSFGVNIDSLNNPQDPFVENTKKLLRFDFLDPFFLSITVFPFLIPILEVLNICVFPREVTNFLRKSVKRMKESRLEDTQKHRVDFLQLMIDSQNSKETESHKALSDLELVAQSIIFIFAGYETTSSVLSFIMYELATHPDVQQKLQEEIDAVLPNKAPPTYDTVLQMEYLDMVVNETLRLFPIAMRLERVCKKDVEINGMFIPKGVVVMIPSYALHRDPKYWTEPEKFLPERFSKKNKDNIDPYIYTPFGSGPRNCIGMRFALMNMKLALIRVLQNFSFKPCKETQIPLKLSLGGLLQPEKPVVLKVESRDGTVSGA

[24] = Drug concentration in Sprague-Dawley rat brain by LC-MS/MS analysis; format: ADME, tissue-based; conditions: in vivo
[25] = Hepatic clearance in rat liver microsomes by LC-MS/MS analysis; format: ADME, Microsome
[26] = Tmax in Beagle dog at 2 mg/kg, po measured for 24 hrs by LC-MS/MS analysis; format: ADME, organism-based, Canis lupus familiaris; conditions: in vivo
[27] = AUC (0 to 24 hrs) in Beagle dog at 2 mg/kg, po by LC-MS/MS analysis; format: ADME, organism-based, Canis lupus familiaris; design: time < 24 hr, dose 2 mg/kg, route oral; conditions: in vivo
Cytochrome P450 2C19 = Cytochrome P450 2C19 (Homo sapiens, UniProt P33261); experiment: Inhibition of human recombinant CYP2C19; format: ADME
Cytochrome P450 2C19, sequence (P33261 whole entry): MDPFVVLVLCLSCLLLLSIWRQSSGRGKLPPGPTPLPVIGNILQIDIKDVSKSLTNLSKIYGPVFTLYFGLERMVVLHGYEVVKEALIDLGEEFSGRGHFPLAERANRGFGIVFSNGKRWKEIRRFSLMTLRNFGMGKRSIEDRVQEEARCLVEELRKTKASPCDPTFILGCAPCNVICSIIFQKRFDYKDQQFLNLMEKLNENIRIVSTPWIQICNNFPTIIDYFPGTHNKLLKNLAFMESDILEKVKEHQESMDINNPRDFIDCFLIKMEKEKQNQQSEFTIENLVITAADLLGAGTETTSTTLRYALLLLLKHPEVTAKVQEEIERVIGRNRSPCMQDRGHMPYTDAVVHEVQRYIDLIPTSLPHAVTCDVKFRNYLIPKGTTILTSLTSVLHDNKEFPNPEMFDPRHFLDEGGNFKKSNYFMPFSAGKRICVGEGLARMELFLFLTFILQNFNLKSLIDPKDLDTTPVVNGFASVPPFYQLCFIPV

Rattus norvegicus [28] = experiment: Anti-premature ejaculation activity in anesthetized oxytocin-induced uterine contraction Sprague-Dawley rat model assessed as decrease in intraluminal uterine pressure at 10 mg/kg, po treated for 20 mins and 1 hr later treated with oxytocin and measured for 15 to 30 mins relative to control; format: functional
[29] = Solubility of compound in PBS at pH 7.4; format: physicochemical
[30] = Hepatic clearance in mouse liver microsomes by LC-MS/MS analysis; format: ADME, Microsome
[31] = AUC (0 to 24 hrs) in nude mouse at 4 mg/kg, po by LC-MS/MS analysis; format: ADME, organism-based; design: time < 24 hr, dose 4 mg/kg, route oral; conditions: in vivo
[32] = AUC (0 to 24 hrs) in Sprague-Dawley rat at 150 mg/kg, po by LC-MS/MS analysis; format: ADME, organism-based; design: time < 24 hr, dose 150 mg/kg, route oral; conditions: in vivo
[33] = Hepatic clearance in human liver microsomes by LC-MS/MS analysis; format: ADME, Microsome
[34] = AUC (0 to 24 hrs) in Beagle dog at 20 mg/kg, po by LC-MS/MS analysis; format: ADME, organism-based, Canis lupus familiaris; design: time < 24 hr, dose 20 mg/kg, route oral; conditions: in vivo
[35] = Acute toxicity in rat assessed as increase in urinary output at 900 mg/kg measured for 7 days; format: organism-based; conditions: in vivo, 168 h
[36] = Solubility of compound in FASSIF at pH 6.5; format: physicochemical
[37] = Half-life in Sprague-Dawley rat at 150 mg/kg, po measured for 24 hrs by LC-MS/MS analysis; format: ADME, organism-based; conditions: in vivo
[38] = Cmax in Beagle dog at 2 mg/kg, po measured for 24 hrs by LC-MS/MS analysis; format: ADME, organism-based, Canis lupus familiaris; design: dose 2 mg/kg, route oral; conditions: in vivo
Cytochrome P450 3A4 [39] = target: T2, Cytochrome P450 3A4; experiment: Inhibition of human recombinant CYP3A4 using midazolam as substrate; format: ADME
Homo sapiens [40] = species: Homo sapiens; experiment: Selectivity ratio of IC50 for human vasopressin V2 receptor expressed in HEK293 cells to IC50 for human OTR expressed in HEK293 cells; format: cell-based
[41] = Tmax in Sprague-Dawley rat at 30 mg/kg, po measured for 24 hrs by LC-MS/MS analysis; format: ADME, organism-based; conditions: in vivo
[42] = Lipophilicity, log D of compound at pH 7.4; format: physicochemical; conditions: buffer

## COCc1nnc(N2C[C@@H]3C[C@]3(c3ccc(F)cc3Cl)C2)n1-c1ccc(OC)nc1
[1]
  Cmax: 330 ng/mL
Homo sapiens [2]
  Ratio IC50: 2500
[3]
  Cp: 1379 ng/mL
[4]
  AUC(0-t) at 24 h: 1680 ng·h/mL
[5]
  half-life: 203 min
[6]
  Tmax: 30 min
[7]
  selectivity ratio: 10
[8]
  Cmax: 13500 ng/mL
Oxytocin receptor
  IC50: 0.015 µM
[9]
  clearance: 16.1 mL/min/kg
[10]
  Cmax: 14000 ng/mL
[11]
  half-life: 278 min
[12]
  fraction unbound: 0.0146
[13]
  MTD: > 900 mg/kg
  NOAEL: 300 mg/kg
[14]
  Tmax: 52.8 min
[15]
  clearance: 31.3 mL/min/kg
Cytochrome P450 2D6
  IC50: > 30 µM
[16]
  fraction unbound: 0.0352
[17]
  Activity: Non-Toxic
[18]
  CLhep predicted: 20.3 mL/min/kg
Rattus norvegicus [19]
  ED: 30 mg/kg
  inhibition: Dose-dependent effect
[20]
  Activity: Non-Toxic
[21]
  clearance: 7.2 mL/min/kg
[22]
  Cmax: 350 ng/mL
Cytochrome P450 3A4 [23]
  IC50: 20 µM
[24]
  Ct: 229 ng/g
[25]
  CLhep predicted: 54.9 mL/min/kg
[26]
  Tmax: 45 min
[27]
  AUC(0-t) at 24 h: 3830 ng·h/mL
Cytochrome P450 2C19
  IC50: 11 µM
Rattus norvegicus [28]
  inhibition in vivo at 10 mg/kg: 17.6%
[29]
  solubility: 420 µM (≈ 180 µg/mL)
[30]
  CLhep predicted: 77.4 mL/min/kg
[31]
  AUC(0-t) at 24 h: 548 ng·h/mL
[32]
  AUC(0-t) at 24 h: 57200 ng·h/mL
[33]
  CLhep predicted: 14.8 mL/min/kg
[34]
  AUC(0-t) at 24 h: 58700 ng·h/mL
[35]
  Activity: Toxic
[36]
  solubility: 108 µM (≈ 46.2 µg/mL)
[37]
  half-life: 194 min
[38]
  Cmax: 930 ng/mL
Cytochrome P450 3A4 [39]
  IC50: > 30 µM
Homo sapiens [40]
  Ratio IC50: 2170
[41]
  Tmax: 37.8 min
[42]
  logD: 2.86
